{
  "source": "patent US20230165824A1",
  "about": "“METHODS, SYSTEMS AND COMPOSITIONS FOR INHIBITION OF CELLULAR DYSFUNCTION AND CELL DEATH WITH DEUTERATED PUFAs” (BioJiva LLC, priority 2021, published 2023)",
  "key": {"murine fibroblasts": {"test_system": "murine fibroblasts", "settings": "for % Cell Survival: murine fibroblasts treated with 50 micromolar erastin, plate dilution assay; for Level of protection against LPO induced cell death relative to 13,13-D2-arachidonic acid: murine fibroblasts, 50 micromolar erastin", "quoted_text": "In this example, two different pools of cells were each seeded in 48-well plates and treated with 50 micromolar of erastin.\nAfterwards, cell viability was measured by plate dilution assay to distinguish between cells that are alive and those that are dead on a Petri dish."}, "[1]": {"settings": "ALS patients on D2-LA; based on total AA and D2-AA; 'when calculated'", "description": "(§1) Patients suffering from ALS were treated with D2-LA over a period of time. […] Some patients were provided 2 grams of 11,11-D-2 LA per day as opposed to the loading dose of 9 grams per day.\n(§2) Functional scores for each of the patients (ALSFRS-R results) at the end of therapy were compared to the natural history scores at the start of therapy."}, "[2]": {"assay": "Determination of D2-AA and D2-LA concentrations in CSF and RBCs in a single patient (Example 1)", "text": "This example determines the relative concentration of D2-AA in the CSF and in RBCs in order to determine a correlation between these two concentrations. Specifically, a patient was continuously provided with a daily dose of 9 grams of D2-LA ethyl ester (which is 8.64 grams of active discounting for impurities and removal of the ethyl ester) over about a six-month period. Periodic samples of blood and CSF were taken and the concentration of both D2-LA and D-2AA in both the RBCs and the CSF were measured. In all cases, the D2-AA was obtained by deacylation of the ethyl ester of linoleic acid in the gastrointestinal tract followed by conversion of D2-LA in vivo to D2-AA."}, "[3]": {"settings": "6 months; 15 INAD infants treated"}, "[4]": {"settings": "INAD children, 3.9 grams D2-LA ethyl ester daily for 1 month then 2.9 grams", "description": "In this example, children suffering from INAD were treated with a daily dose of 3.9 grams of D2-LA ethyl ester followed by 2.9 grams of D2-LA ethyl ester. Given the age and weight of these children, such is assumed to be substantially equivalent to a loading dose of from about 7 and about 12 grams per day for an adult patient for an adult patient and a maintenance dose which is less than the loading dose again for an adult patient.\nThis example also determines the concentration of D2-AA in RBCs. Specifically, a cohort of 14 children was provided with a daily dose of 3.9 grams of D2-LA ethyl ester for 1 month followed by 2.9 grams of D2-LA ethyl ester for the remaining six-month period. Blood samples were taken at 3 months for all but 1 child and at 6 months for all children. The concentration of D2-AA in RBCs was measured."}, "[5]": {"test_system": "infants suffering from INAD", "assay": "Open label treatment study of INAD patients (Example 6)", "assay_type": "in vivo, human", "description": "Novel and conventional developmental neurologic assessment scales appropriate to the disease and which measure vital function in different parts of the brain were applied at base line and at 6 monthly intervals and the health and well-being of the infants were assessed continuously for 1-2 years, including any aspiration pneumonia, hospitalizations and deaths."}, "patients with ALS": {"test_system": "patients with ALS", "assay": "ALSFRS-R rate of functional decline in ALS patients on primer/maintenance dosing regimen (Example 3)", "assay_type": "in vivo, human", "settings": "for Annualized average reduction in the rate of disease progression: 9 grams then 5 grams daily, vs natural history", "description": "As set forth in the examples below, the rate of functional decline is predicated on measuring an individual's, or a cohort's, average for the natural history of disease progression. Next, the individual or cohort average for the functional decline is determined at a period of time such as at 3, 6 or 12 months after initiation of therapy. The rate of decline based on the average of the natural history of the cohort is set as the denominator. The numerator is set as the delta between the rate of the natural history of disease progression and the rate of functional decline after a set period of treatment per this invention. The resulting fraction is the multiplied by 100 to give a percent change. The following exemplifies this analysis.\nThis example illustrates the reduction in the rate of disease progression in patients with ALS treated by the dosing methods described herein, this example evidences that the amount of oxidized PUFA products has been reduced to a level that allows the otherwise impaired regulatory enzymes are able to neutralize substantially all of these oxidized products now generated. Specifically, a cohort of 3 patients was placed on a dosing regimen consisting of a first dosing component (primer dose) of about 9 grams of D2-LA ethyl ester daily for a period of at least 30 days and then all three patients were transitioned to a second dosing component (maintenance dose) of 5 grams of D2-LA ethyl ester.\nThe functionality of each of the patients was evaluated periodically using the ALSFRS-R protocol. The patients continued on the dosing regimen for a period of 6 months (patient A) or 1 year (patient B) or for 9 months (patient C). Patient C died at the end of 9 months and their death was attributed to factors other than ALS cardiomyopathy. Before initiation of therapy, the natural history of each patient in the cohort was determined and an average annual rate of functional decline was measured at 21.\nThe annualized progression of the disease, as measured by an average annual rate of functional decline for all three patients starting at the time that dosing began and terminating at the end of the dosing regimen and then annualized as described above, was measured as 2.1. Using the formula described above, one obtains the following: […]"}, "[6]": {"test_system": "patients suffering from ALS", "assay": "ALSFRS-R rate of functional decline in ALS patients treated with D2-LA (Comparative Example A)", "assay_type": "in vivo, human", "description": "as §1, §2"}, "[7]": {"settings": "3 months, single patient, daily 9 grams D2-LA ethyl ester"}, "[8]": {"settings": "6 months, single patient, daily 9 grams D2-LA ethyl ester"}},
  "note": "Like-named read-outs stand apart in the source and are kept apart here.",
  "data": [
    {"smiles": "[2H]C([2H])(/C=C\\C/C=C\\C/C=C\\CCCC(=O)O)/C=C\\CCCCC", "note": "[D2-AA, 13,13-D2-Arachidonic Acid]", "values": [
      {"measurement": "% Cell Survival", "setting": "murine fibroblasts", "result": 33.2, "unit": "%"},
      {"measurement": "Amount of D2-AA in the patients' RBCs, average", "setting": "[1]", "result": "about 3%"},
      {"measurement": "Amount of D2-AA in RBCs at 1 month, estimated by linear extrapolation", "setting": "[2]; 1 month, extrapolated from 3 and 6 month values (FIG. 1)", "result": "about 3%"},
      {"measurement": "Concentration of D2-AA in CSF", "setting": "[2]; 1 month, single patient, daily 9 grams D2-LA ethyl ester, based on arachidonic acid + deuterated arachidonic acid", "result": 8, "unit": "%"},
      {"measurement": "Concentration of D2-AA in RBCs", "setting": "[2]; [7]", "result": 11.8, "unit": "%"},
      {"measurement": "Concentration of D2-AA in RBCs", "setting": "[2]; [8]", "result": 16.7, "unit": "%"},
      {"measurement": "Average plasma level of D2-AA", "setting": "[3]", "result": 17.4, "unit": "%"},
      {"measurement": "Average concentration of D2-AA in the RBCs", "setting": "[4]; 3 months", "result": 12, "unit": "%"},
      {"measurement": "Average concentration of D2-AA in the RBCs", "setting": "[4]; 6 months", "result": 16.7, "unit": "%"}
    ]},
    {"smiles": "[2H]C([2H])(/C=C\\CCCCC)/C=C\\CCCCCCCC(=O)O", "note": "[D2-LA, 11,11-D2-Linoleic Acid]", "values": [
      {"measurement": "Concentration of D2-LA in CSF", "setting": "[2]; 1 month, single patient, daily dose of 9 grams of D2-LA ethyl ester", "result": 19.8, "unit": "%"},
      {"measurement": "Concentration of D2-LA in RBCs", "setting": "[2]; [7]", "result": 34.7, "unit": "%"},
      {"measurement": "Concentration of D2-LA in RBCs", "setting": "[2]; [8]", "result": 34.5, "unit": "%"},
      {"measurement": "Deaths due to other causes", "setting": "[5]; 19 INAD infants treated", "result": 2},
      {"measurement": "Non-fatal pneumonia", "setting": "[5]; 19 INAD infants treated", "result": 2},
      {"measurement": "Serious events", "setting": "[5]; 19 INAD infants treated at least 1 year and up to 2.5 years", "result": 4},
      {"measurement": "No. of Aspirations resulting in pneumonias", "setting": "[5]; 19 INAD infants treated at least 1 year and up to 2.5 years, natural history 10/37", "result": "2/19"},
      {"measurement": "Percent mortality", "setting": "[5]; 19 INAD infants treated, mortality from pneumonias, natural history 21.6%", "result": 0, "unit": "%"},
      {"measurement": "Fatal Pneumonias", "setting": "[5]; 19 INAD infants treated, natural history 8", "result": 0},
      {"measurement": "Percent Pneumonias", "setting": "[5]; 19 INAD infants treated, natural history 27.0%", "result": 10.5, "unit": "%"},
      {"measurement": "Deaths due to aspiration pneumonia", "setting": "[5]; 19 subjects over 2.5 years treatment", "result": "no deaths due to aspiration pneumonia"},
      {"measurement": "Annualized average reduction in the rate of disease progression", "setting": "patients with ALS; cohort of 3 ALS patients", "result": "~90", "unit": "%"},
      {"measurement": "Annualized rate of decline (ALSFRS-R) during treatment", "setting": "[6]; different dosing amounts and periods of D2-LA (some 2 grams per day), pre-treatment −14.2+/−4.4", "result": "−7.6+/−1.4 per year"},
      {"measurement": "Reduction in rate of decline vs pre-treatment", "setting": "[6]; p=0.07, paired t-test for within-subject change in slope", "result": 46, "unit": "%"}
    ]},
    {"smiles": "[2H]C([2H])(/C=C\\CCCCC)/C=C\\CCCCCCCC(=O)OCC", "note": "[D2-LA ethyl ester, 11,11-D2-linoleic acid ethyl ester]", "values": [
      {"measurement": "Functional Rate Decline During Therapy", "setting": "patients with ALS; Patient A, 6 months on regimen, NH rate of decline −16", "result": "−3"},
      {"measurement": "Functional Rate Decline During Therapy", "setting": "patients with ALS; Patient B, 1 year on regimen, NH rate of decline −31", "result": "−2"},
      {"measurement": "Functional Rate Decline During Therapy", "setting": "patients with ALS; Patient C, 9 months on regimen, NH rate of decline −16", "result": "−1.3"},
      {"measurement": "Annualized average reduction in the rate of disease progression", "setting": "patients with ALS; cohort of 3 ALS patients", "result": 90, "unit": "%"},
      {"measurement": "Average annual rate of functional decline (ALSFRS-R) during dosing, annualized", "setting": "patients with ALS; cohort of 3 ALS patients, about 9 grams daily at least 30 days then 5 grams, natural history 21", "result": 2.1}
    ]},
    {"smiles": "[2H]C([2H])(/C=C\\CCCCC)/C=C\\C([2H])([2H])/C=C\\C([2H])([2H])/C=C\\CCCC(=O)O", "values": [
      {"measurement": "% Cell Survival", "setting": "murine fibroblasts", "result": 70.2, "unit": "%"},
      {"measurement": "Level of protection against LPO induced cell death relative to 13,13-D2-arachidonic acid", "setting": "murine fibroblasts", "result": "approximately twice the level of protection"},
      {"measurement": "Level of protection against LPO induced cell death relative to 13,13-D2-arachidonic acid", "setting": "murine fibroblasts; listed as D6-AA", "result": "about 2"}
    ]}
  ]
}
